Experimental data taken from ChEMBL document CHEMBL1130990, “High-throughput synthesis and direct screening for the discovery of novel hydrolytic metal complexes” (Bioorg Med Chem Lett, 1998).

Columns and labels:
[1] = Compound was evaluated for rate enhancement, obtained in the hydrolysis of para-nitrophenyl acetate (Ko = 1.6 x 10 e-4/min); ratio=Kobs/K0; type: ADME
[2] = Compound was evaluated for rate enhancement, obtained in the hydrolysis of N-methoxycarbonyl-L-phenylalanine-p-nitrophenylester (Ko = 1.1 x 10 e-3/min); ratio=Kobs/K0; type: ADME

Compound | Ratio [1] | Ratio [2]
OC1COc2ccccc2CNCCNCCNCc2ccccc2OC1.[O-][Cl+3]([O-])([O-])[O][Zn][O][Cl+3]([O-])([O-])[O-] | 1.7 | 2.9
[O-][Cl+3]([O-])([O-])[O][Zn][O][Cl+3]([O-])([O-])[O-].c1ccc2c(c1)CNCCNCCNCc1ccccc1OCC(Oc1ccc3ccccc3c1)CO2 | 2.9 | 4.7
COC1COc2ccccc2CNCCNCCNCc2ccccc2OC1.[O-][Cl+3]([O-])([O-])[O][Zn][O][Cl+3]([O-])([O-])[O-] | 2.4 | 3
[O-][Cl+3]([O-])([O-])[O][Zn][O][Cl+3]([O-])([O-])[O-].c1ccc(OC2COc3ccccc3CNCCNCCNCc3ccccc3OC2)cc1 | 2.5 | 3.9
